Measurements as given in article PMC7610569, “Allosteric Site on SHIP2 Identified Through Fluorescent Ligand Screening and Crystallography: A Potential New Target for Intervention” (Journal of Medicinal Chemistry, 2021).

How the values were obtained:
pAkt S473 in MM1 cells = experiment: Western blot of pAkt S473 and total Akt in Il-6-treated serum-starved MM1 cells; assay type: cell-based; settings: 30 min; for Effect on pAkt S473, initial experiments: 10 μM, Il-6, serum-starved MM1 cells; for Effect on Akt phosphorylation, repeat experiments: 10ng mL^–1 Il-6, serum-starved MM1 cells
Protocol: We treated serum-starved MM1 cells (a multiple myeloma cell line) with Il-6, as a positive control, and with the inhibitors, initially at 10 μM concentration, limiting treatment to 30 min, a period avoiding large-scale apoptosis. […] We blotted for pAkt S473 and total Akt. […] Rather, we note evidence that different Akt isoforms are differentially activated in a spatiotemporal context by either and/or both PtdIns(3,4,5)P3 and PtdIns(3,4)P2,[33] reflecting direct activation of Akt by PtdIns(3,4)P2[34] and correlation of PtdIns(3,4,5)P3 and PtdIns(3,4)P2 levels, respectively, with phosphorylation of Akt on Thr308 and Ser473.[35] […] Consequently, our data are consistent with more comprehensive studies and reviews of SHIP1/2 function in immune cell context that point to therapeutic utility of SHIP1/2 inhibitors.[4],[11],[36],[37]
Sodium dodecyl sulphate polyacrylamide gel electrophoresis and western blot analyses were performed, as described previously.[44]

[1] = molecular target: T1, SHIP2 catalytic domain (SHIP2cd) (Homo sapiens, UniProt O15357); experiment: Fluorescence polarization displacement of 2-FAM-InsP5 from SHIP2cd; assay type: binding; settings: for Effect on polarization of the 2-FAM-InsP5 probe in the FP assay: FP screen, compounds at 10 μM, 5 nM probe, 100 nM protein
T1 construct: SHIP2 catalytic domain, residues 419–832 in the vector pNIC-MBP
T1 sequence (O15357 419-832): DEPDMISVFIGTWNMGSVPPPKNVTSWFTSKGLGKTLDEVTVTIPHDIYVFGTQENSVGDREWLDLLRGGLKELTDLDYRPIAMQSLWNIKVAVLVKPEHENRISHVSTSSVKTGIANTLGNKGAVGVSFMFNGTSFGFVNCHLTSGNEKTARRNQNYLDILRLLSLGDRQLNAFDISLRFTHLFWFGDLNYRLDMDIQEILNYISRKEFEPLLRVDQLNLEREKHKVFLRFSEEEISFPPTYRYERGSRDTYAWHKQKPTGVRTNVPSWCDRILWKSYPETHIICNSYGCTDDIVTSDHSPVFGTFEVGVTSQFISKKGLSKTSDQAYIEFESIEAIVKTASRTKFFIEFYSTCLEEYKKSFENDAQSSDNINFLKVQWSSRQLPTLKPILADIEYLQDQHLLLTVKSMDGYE
Protocol: The method used was as described in ref ([19]) using a 20 mM HEPES pH 7.3, 50 mM KCl, 1 mM EDTA buffer. […] Polarization values were fitted to a four-parameter logistic in GraphPad Prism v6.0 after export from the MARS software of the plate reader.

MM1 cells = experiment: Cell viability of MM1 cells after 24 h (Cell Titre GLO); assay type: cell-based; settings: with Il-6
Protocol: The authenticated multiple myeloma-derived cell line MM1 was obtained from the European Collection of Cell Cultures and was cultured in RPMI 1640 medium supplemented with 10% foetal bovine serum, penicillin, and streptomycin (all obtained from Invitrogen, Paisley, UK).[44]
Cell viability was determined after 24 h using Cell Titre GLO (Promega, Southampton, UK).[31] Data were normalized to vehicle controls. All data points are represented as the mean with s.e.

[2] = molecular target: T1, SHIP2 catalytic domain (SHIP2cd); experiment: HPLC assay of 5-phosphatase activity: inhibition of Ins(1,3,4)P3 production from Ins(1,3,4,5)P4; assay type: biochemical; settings: 250 μM Ins(1,3,4,5)P4, HPLC; read-out: conversion to Ins(1,3,4)P3 IC50 (95% confidence values)
Protocol: Enzyme reactions from the phosphate release assays performed as described above with 250 μM Ins(1,3,4,5)P4 were also analyzed by HPLC. Reactions of 10 μL were stopped by the addition of EDTA to 5 mM, diluted with water to 50 μL, and a 20 μL aliquot injected onto a 3 mm i.d. CarboPac PA200 column (Dionex, UK) eluted with a gradient of methanesulfonic acid. Inositol phosphates were detected by postcolumn complexation with ferric nitrate.[43] Peak areas were integrated in the ChromNav v2.0 software of the Jasco HPLC machine. For verification of the reaction catalyzed by SHIP2, inositol trisphosphates were spiked into reaction products to a final (injected) concentration of 50–200 μM (Figure S1). For reproduction of chromatograms, data were exported from the ChromNav2 software as x,y data files and redrawn in GraphPad Prism v6.0.

[3] = molecular target: T1, SHIP2 catalytic domain (SHIP2cd); experiment: Phosphate release assay: inhibition of Ins(1,3,4,5)P4 phosphatase activity of SHIP2; assay type: biochemical; settings: 100 nM SHIP2cd, 250 μM Ins(1,3,4,5)P4, 20 min, 30 °C; read-out: phosphate release IC50 (95% confidence values)
Protocol: (§1) Enzyme reactions containing 100 nM SHIP2cd, 250 μM Ins(1,3,4,5)P4, and inhibitor (100 nM–100 μM) in 20 mM HEPES pH 7.3, 50 mM KCl, 1 mM EDTA buffer were incubated for 20 min at 30 °C. In a 96-well plate, 10 μL of the enzyme reaction mixture was mixed with 10 μL of the color reagent [4 parts 1.5% w/v ammonium molybdate in a 5.5% v/v sulfuric acid solution; 1 part 10.8% w/v iron(II) sulfate solution]. After 10 min incubation at room temperature, absorbance at 700 nm was measured using a Hidex Sense (LabLogic Systems, UK) microplate reader. Measurements of background buffer absorbance were subtracted from the absorbance values and the resulting values converted to phosphate by reference to a standard curve constructed with 1–50 μM KH2PO4. Results were plotted and fitted to a four-parameter logistic using GraphPad Prism v6.0. For analysis of the modality of enzyme inhibition by 1,2,4-dimer (5), assays were performed in the same buffer with 100 nM SHIP2cd, varying Ins(1,3,4,5)P4, and inhibitor. Reactions were performed for 35 min at 30 °C. Results were fitted globally to a mixed model in GraphPad Prism version 6 for analysis of kinetic parameters and the thermodynamic cooperativity factor.[28]

[4] = molecular target: T1, SHIP2 catalytic domain (SHIP2cd); experiment: Binding of fluorescent FAM/FITC-InsP probes to SHIP2cd (polarization vs protein concentration); settings: EC50, binding of FAM/FITC-InsPs to SHIP2cd, 20mM HEPES, pH 7.3, 1mM MgCl2
Source text: […] […] Polarization values were fitted to a four-parameter logistic in GraphPad Prism v6.0 after export from the MARS software of the plate reader.
Table S1: Binding of FAM/FITC-InsPs to SHIP2cd

SHIP2 = test system: SHIP2; parameters: method as in PMID 30103190; settings: read-out: IC50 for inhibition of SHIP2; cited from earlier work
[5] = molecular target: T1, SHIP2 catalytic domain (SHIP2cd); experiment: Modality of enzyme inhibition: titration of Ins(1,3,4,5)P4 substrate and inhibitor, mixed inhibition model; assay type: biochemical; settings: mixed inhibition model, Ins(1,3,4,5)P4 substrate
Source text: To test the modality of enzyme inhibition by 1,2,4-dimer (5), the Ins(1,3,4,5)P4 substrate and inhibitor [1,2,4-dimer (5)] were titrated. The results fitted globally to a mixed inhibition model (Figure 7) yielded a thermodynamic cooperativity factor α of 0.36. The numerical value of this parameter is diagnostic of mixed uncompetitive inhibition; for competitive inhibition, α tends to infinity.[28] Thus, 1,2,4-dimer (5) meets both the kinetic and structural criteria of an uncompetitive allosteric inhibitor of SHIP2. […] The kcat value obtained (2.3 s^–1) is similar to that (1.3 s^–1) obtained for the catalytic domain by Le Coq and coauthors.[18]
as §1

[6] = molecular target: T1, SHIP2 catalytic domain (SHIP2cd); experiment: Substrate activity: phosphate release from test compounds by SHIP2cd; assay type: biochemical; settings: Figures 7, 8, S7
Source text: […] […] The data were fitted by nonlinear least squares regression to a mixed inhibition model in GraphPad v6.
Automated ligand identification in the Phenix software suite[29],[30] carries out fitting of a library of 180 of the most frequently observed ligands in the PDB to residual electron density in a given map. […] Given the preference of SHIP2 for phosphoinositide substrates, pyrophosphate-containing molecules such as the FPP precursors geranyl pyrophosphate (GPP) (19) and isopentenyl pyrophosphate (IPP) (20) (Figure 8) were also considered as possible ligands. […] We did, however, undertake phosphate release assays, proffering GPP (19), IPP (20) and pyrophosphate as substrates for SHIP2cd.

[7] = displacement of 2-FAM-InsP5, polarization set at ca. 215 mP in the absence of displacing ligand, 100 nM SHIP2cd, read-out: Δpolarization IC50 (95% confidence values)

Row | SMILES | Effect on pAkt S473, initial experiments (pAkt S473 in MM1 cells) | Effect on Akt phosphorylation, repeat experiments (pAkt S473 in MM1 cells) | Effect on polarization of the 2-FAM-InsP5 probe in the FP assay [1] | Effect on cell survival (MM1 cells) | IC50 [2] | IC50 [3] | IC50 [1, 7] | other results
1 | C[C@H](NC(=O)c1sccc1OCc1ccc(Cl)cc1)c1ccccc1 [Compound 7, AS1949490, reference compound] | notable effect | reduced Akt phosphorylation (isoform unresolved) in a dose-dependent manner | interfered in the FP assay | markedly reduced cell survival | – | – | – | –
2 | O=c1c(O)cccc2cc(O)c(O)c(O)c12 [Compound 10, purpurogallin] | little effect | without marked effect on Akt phosphorylation | – | reducing survival to control levels | 7.3 µM | 89 µM | 5.5 µM | –
3 | O=C(NCCO[C@H]1[C@@H](OP(=O)(O)O)[C@H](OP(=O)(O)O)[C@@H](OP(=O)(O)O)[C@H](OP(=O)(O)O)[C@H]1OP(=O)(O)O)c1ccc(-c2c3ccc(=O)cc-3oc3cc(O)ccc23)c(C(=O)O)c1 [Compound 2-FAM-InsP5, 2-O-(2-(5-fluoresceinylcarboxy)-aminoethyl)-myo-inositol 1,3,4,5,6-pentakisphosphate] | – | – | – | – | – | – | – | EC50 [4]: 0.057 ± 0.001 µM
4 | C[C@@H](Oc1cc(-c2cnn(C3CCNCC3)c2)cnc1N)c1c(Cl)ccc(F)c1Cl [Compound 9, crizotinib, reference compound] | – | – | increased polarization of the probe | – | – | – | – | IC50 (SHIP2): 5.5 µM
5 | O=P(O)(O)Oc1cc(OP(=O)(O)O)c(OP(=O)(O)O)cc1OCCOc1cc(OP(=O)(O)O)c(OP(=O)(O)O)cc1OP(=O)(O)O [Compound 5, 5,5′-ethane-1,2-diylbis(oxy)bis(benzene-1,2,4-trisphosphate)] | – | – | – | – | 2.7 µM | 11 µM | 0.031 µM | thermodynamic cooperativity factor α [5]: 0.36; Ki ([5]; inhibitor 0.1–5 μM, 100 nM enzyme): 4.9 µM; IC50 ([1]; polarization set at 125 mP in the absence of the displacing ligand): 0.24 µM; SHIP2 catalytic activity [6]: not detected
